Laboratory results as given in ChEMBL document CHEMBL4295262, “Evaluation of the utility of stem-cell derived cardiomyocytes for drug proarrhythmic potential” (2019).

Experiments:
[1] = (§1) Electrical activity assay on cell lines treated with a given drug. DMSO was used as a vehicle and a control, unblinded dofetilide was used as a control.; type: ADME, cell-based; design: FPDc: unit not given here; details: human, ipsc-cm, 0.003 µM; concentration (um) 0.003 uM
[2] = as §1; details: human, ipsc-cm
[3] = as §1; details: human, ipsc-cm; remark: listed apart in the source
[4] = as §1; type: ADME, cell-based; design: FPDc: unit not given here; details: human, ipsc-cm
[5] = as §1; type: ADME, cell-based; details: human, ipsc-cm, 0.005 µM; concentration (um) 0.005 uM
[6] = as §1; type: ADME, cell-based; details: human, ipsc-cm, 0.003 µM; concentration (um) 0.003 uM
[7] = as §1; details: human, ipsc-cm; remark: listed apart in the source
[8] = as §1; type: cell-based; design: APDc: unit not given here; details: human, ipsc-cm
[9] = as §1; details: human, ipsc-cm, 0.003 µM
[10] = 0.0032 µM, concentration (um) 0.0032 uM
[11] = 0.01 µM, concentration (um) 0.01 uM
[12] = 0.0003169 µM, concentration (um) 0.000316912 uM
[13] = 0.001001 µM, concentration (um) 0.00100144 uM
[14] = 0.003165 µM, concentration (um) 0.00316456 uM
[15] = 0.005 µM, concentration (um) 0.005 uM

FPDc [1]: 32.45
FPD measurement ([2]; 0.0003169 µM): 57.26 FPDc
FPDc ([2]; 0.0003169 µM): 57.26
FPD measurement ([2]; 0.001001 µM): 62.9 FPDc
FPDc ([2]; 0.001001 µM): 62.9
FPD measurement ([2]; 0.003 µM): 58.92 FPDc
FPDc ([2]; 0.003 µM): 58.92
FPD measurement ([2]; 0.003165 µM): 74.44 FPDc
FPDc ([2]; 0.003165 µM): 74.44
FPD measurement ([2]; 0.0033 µM): 77.41 FPDc
FPDc ([2]; 0.0033 µM): 77.41
FPDc ([4]; 0.0003 µM, concentration (um) 0.0003 uM): 0.03867
FPDc ([4]; 0.001 µM, concentration (um) 0.001 uM): 0.04061
FPDc ([4]; 0.003 µM, concentration (um) 0.003 uM): 0.05119
FPD measurement [5]: 59.84 FPDc
FPDc ([7]; 0.0003169 µM): 74.54
FPDc ([7]; 0.001001 µM): 77.51
FPDc ([7]; 0.003 µM): 91.98
FPDc ([7]; 0.003165 µM): 81.19
APDc [8, 12]: 62.54
FPD measurement [8, 12]: 62.54 FPDc
APDc [8, 13]: 77.55
FPD measurement [8, 13]: 77.55 FPDc
APDc [8, 14]: 79.29
FPD measurement [8, 14]: 79.29 FPDc
APDc [8, 15]: 61.92
FPD measurement [8, 15]: 61.92 FPDc
APDc [9]: 63.81
FPD measurement [9]: 63.81 FPDc
Structure (SMILES): CN(CCOc1ccc(NS(C)(=O)=O)cc1)CCc1ccc(NS(C)(=O)=O)cc1 [DOFETILIDE]
FPD measurement ([2]; 0.01 µM): More Than Half The Wells Had A Quiescence Event Or Fpdc Readings Of 0
FPDc ([2]; 0.01 µM): More Than Half The Wells Had A Quiescence Event Or Fpdc Readings Of 0
FPD measurement ([3]; 0.0003169 µM): 1 Values Out Of 1 Were Excluded Due To Quiescence Or 0 Fpdc
FPDc ([3]; 0.0003169 µM): 1 Values Out Of 1 Were Excluded Due To Quiescence Or 0 Fpdc
FPD measurement ([3]; 0.001001 µM): 1 Values Out Of 1 Were Excluded Due To Quiescence Or 0 Fpdc
FPDc ([3]; 0.001001 µM): 1 Values Out Of 1 Were Excluded Due To Quiescence Or 0 Fpdc
FPD measurement ([3]; 0.003165 µM): 1 Values Out Of 1 Were Excluded Due To Quiescence Or 0 Fpdc
FPDc ([3]; 0.003165 µM): 1 Values Out Of 1 Were Excluded Due To Quiescence Or 0 Fpdc
FPD measurement ([3]; 0.01 µM): 1 Values Out Of 1 Were Excluded Due To Quiescence Or 0 Fpdc
FPDc ([3]; 0.01 µM): 1 Values Out Of 1 Were Excluded Due To Quiescence Or 0 Fpdc
FPD measurement [4, 10]: More Than Half The Wells Had A Quiescence Event Or Fpdc Readings Of 0
FPDc [4, 10]: More Than Half The Wells Had A Quiescence Event Or Fpdc Readings Of 0
FPD measurement [4, 11]: More Than Half The Wells Had A Quiescence Event Or Fpdc Readings Of 0
FPDc [4, 11]: More Than Half The Wells Had A Quiescence Event Or Fpdc Readings Of 0
FPDc [5]: 24 Values Out Of 24 Were Excluded Due To Quiescence Or 0 Fpdc
FPD measurement [6]: More Than Half The Wells Had A Quiescence Event Or Apdc Readings Of 0
FPDc [6]: More Than Half The Wells Had A Quiescence Event Or Fpdc Readings Of 0
FPD measurement ([7]; 0.0003169 µM): 5 Values Out Of 5 Were Excluded Due To Quiescence Or 0 Apdc
FPD measurement ([7]; 0.001001 µM): 5 Values Out Of 5 Were Excluded Due To Quiescence Or 0 Apdc
FPD measurement ([7]; 0.003165 µM): 5 Values Out Of 5 Were Excluded Due To Quiescence Or 0 Apdc
FPD measurement ([7]; 0.01 µM): 5 Values Out Of 5 Were Excluded Due To Quiescence Or 0 Apdc
FPDc ([7]; 0.01 µM): More Than Half The Wells Had A Quiescence Event Or Fpdc Readings Of 0
